# Measured values published in patent US10918687B2, “Kava derived therapeutic compounds and methods of use thereof” (KUALITY HERBCEUTICS LLC, priority 2013, dated 2021).
# Key:
# [1] = system: NNK-induced lung tumorigenesis; test: NNK-induced lung adenoma formation in A/J mice; type: in vivo; conditions: Example 4, Day 119
# Experimental: Female A/J mice, 5-6 weeks of age from the Jackson Laboratory (Bar Harbor, Me.), were handled according to animal welfare protocols approved by IACUC at the University of Minnesota. […] After one-week acclimation, mice were weighed, randomized into different groups and switched to AIN-93G-powdered diet, defined as Day 1. The number of mice in each group was specified in the Result Section. On Day 7 and Day 14, mice in the negative control groups received 0.1 mL physiological saline solution while mice in the other groups received NNK (100 and 67 mg/kg respectively in 0.1 mL of physiological saline solution) via i.p. injection. At the end of Day 21, mice were switched to AIN-93M-powdered diet until the end of the study. Diet consumption was measured twice weekly and bodyweight was monitored weekly. All mice were euthanized with an overdose of carbon dioxide. The lungs were collected and tumors on the surface of the lung were counted.
# Data on lung adenoma multiplicity were reported as mean±SD (n=5-40). […] For Experiment 2, unpaired t-test was used for comparison between NNK control and kava treatment groups. Two-sided p-value≤0.05 was considered statistically significant. Data on DNA adducts were reported as mean±SD (n=3). For the time-course study, unpaired […] was used for comparisons between NNK control and kava treatment groups. Two-sided p-value≤0.05 was considered statistically significant: *p<0.05, **p<0.01, and ***p<0.001. For the 24-h time point study, one-way ANOVA was used to compare means.
# After one-week acclimation, mice were weighed, randomized into eight groups and switched to the AIN-93 G diet on a date defined as Day 1. The number of mice in each group is specified in the Results Section (FIG. 36). Mice were fed diets supplemented with different compounds at the dose specified in the Results Section during Day 1-Day 14. On Day 7 and Day 14, mice in the negative control group received 0.1 mL of saline solution while mice in the other groups received NNK (100 and 67 mg/kg, respectively, in 0.1 mL of saline solution) via i.p. injection. At the end of Day 21, mice were switched to the AIN-93 M diet until the end of the study. The diet was replenished twice weekly. The diet consumption was measured twice weekly and the bodyweight was monitored weekly. This study was terminated at the end of Day 119. All mice were euthanized with CO2 overdosing.
# [2] = system: NNK-induced DNA damage in liver tissues; test: NNK-induced DNA damage in A/J mouse liver tissues; type: in vivo, A/J mice; conditions: diet Day 1-Day 7, 24 h after NNK; data not shown
# Experimental: DNA was isolated and purified from ˜100 mg lung and liver tissues of each mouse, following Genomic-tip 100/G protocol from Qiagen Corp (Valencia, Calif.).
# (§1) After one-week acclimation, A/J mice were weighed and randomized into ten groups (3 mice per group except for Group 1 that had one mouse as the negative control) and switched to the AIN-93 G diet on a date defined as Day 1. Mice in Groups 1 and 2 were given the AIN-93 G diet during Day 1-Day 7. Mice in Groups 3-10 were given the AIN-93 G diets supplemented with kava, (+)-DHK, (+)-DHM, and synthetic (±)-DHM respectively at the specified dose during Day 1-Day 7. Mice in Groups 2-10 were given a single dose of NNK at 100 mg/kg bodyweight in saline (0.1 ml) via i.p. injection at the beginning of Day 7 while the mouse in Group 1 was given saline (0.1 ml). Mice were euthanized by CO2 overdosing 24 h after NNK treatment, and lung and liver tissues were collected and stored at −80° C. until DNA isolation. A set of NNK-induced DNA adducts (O^6-mG, 7-mG, 7-pobG, O^6-pobdG, O^2-pobdT, 7-phbG, O^6-phbdG and O^2-phbdT) were quantified by following reported procedures (Leitzman, P et al. (2014) Cancer. Prev. Res., 7: 86-96; Peterson, L A et al. (2013) Chem. Res. Toxicol. 26: 1464-1473; Upadhyaya, P et al. (2008) Chem. Res. Toxicol. 21: 1468-1476). For 7-mG isolation, DNA (30 μg) was dissolved in 10 mM sodium phosphate buffer, pH 7 (500 μL) and spiked with [^13C1^2H3]7-mG (10 pmol). Samples were heated to 80° C. for 30 minutes. An aliquot (100 μL) was removed for 7-mG analysis.
# [3] = system: NNK-induced DNA adducts in lung tissues; test: NNK-induced DNA adducts in A/J mouse lung tissues (LC-ESI-MS/MS); type: in vivo, A/J mice; conditions: 24 h after NNK
# Description: DNA was isolated from the whole lung tissue of each individual mouse following Puregene DNA isolation protocol (Qiagen Corp, Valencia, Calif.) (Urban et al., Chem Res Toxicol 2012; 25:2167-78). 7-pobG, O^2-pobdT, O^6-pobdG, and O^6-mG were quantified by LC-ESI-MS/MS, following established protocols (Urban et al., Chem Res Toxicol 2012; 25:2167-78; Peterson et al., Cancer Res 1991; 51:5557-64).
# After one-week acclimation, A/J mice were weighed and randomized into seven groups (3 mice per group) and switched to the AIN-93 G diet on a date defined as Day 1. Mice in Groups 1 and 2 were given the AIN-93 G diet during Day 1-Day 7. Mice in Groups 3-7 were given the AIN-93 G diet supplemented with desmethoxyyangonin, (+)-DHK, (+)-kavain, (+)-DHM, or (+)-methysticin respectively, at a dose of 1 mg/g of diet during Day 1-Day 7. Mice in Groups 2-7 were given a single dose of NNK at 100 mg/kg bodyweight in saline (0.1 ml) via intraperitoneal (i.p.) injection at the beginning of Day 7 while mice in Group 1 were given saline (0.1 ml). Mice were euthanized by CO2 overdosing 24 h after NNK treatment, and lung tissues were collected and stored at −80° C. until DNA isolation. A number of NNK-induced DNA modifications (O^6-mG, 7-pobG, O^6-pobdG and O^2-pobdT) were quantified by following a reported procedure (Leitzman, P et al. (2014) Cancer. Prev. Res., 7: 86-96).
# as §1
# [4] = system: APAP-induced hepatotoxicity; test: Short-term combination study: potentiation of APAP-induced hepatotoxicity in C57BL/6 mice
# Description: Six week-old female C57BL/6J mice (Jackson Laboratories, ME) were housed at specific pathogen-free animal facilities of Research Animal Resources, University of Minnesota with free access to standard rodent food and water. All mice were acclimatized for one week before being used for experiments. Mice were gavaged with dose formulations at the indicated doses and times, euthanized by CO2 overdosing with necropsy performed by experienced researchers.
# The short-term combination studies were designed to evaluate the potential synergism of kava and its chemicals to APAP induced hepatotoxicity. C57BL/6 mice were randomized (8-15 mice per group) and were administered with PEG-400 (200 μL), kava (500 mg/kg bodyweight), DHM or FKA and FKB in PEG-400 (200 μL) at the indicated doses daily via oral gavage for two days. On the third day, mice in the respective groups were co-administered with APAP (800 mg/kg bodyweight) in PEG-400 (200 μL). Bodyweight was recorded daily. Necropsies were performed 24 hours after the last gavage by experienced researchers. Serum from each mouse was analyzed for ALT and AST. Livers were collected and preserved in 10% neutral buffered formalin. Appropriately fixed tissues were processed into paraffin blocks using standard histological techniques, and 5 μm sections were cut and stained with hematoxylin and eosin (H&E).
# The clinical chemistry data were reported as mean±SD (n=4-15). […] One-way analysis of variance (ANOVA) was used to compare the means among different groups in the short-term combination studies. Dunnett's test was used for comparisons of APAP and other treatment groups when the one-way ANOVA analysis was statistically significant. p-value≤0.05 was considered statistically significant. All analyses were conducted in GraphPad Prism 4 (GraphPad Software, Inc. La Jolla, Calif.).
smiles,measurement,setting,value
"COC1=CC(=O)O[C@@H](CCc2ccc3c(c2)OCO3)C1 (racemic) [(±)-DHM, (±)-dihydromethysticin]",lung adenoma formation (incidence and multiplicity),[1]; 0.5 mg/g of diet Day 1-Day 14,adenoma free
same,effect on NNK-induced DNA damage in the liver tissues,[2],none of the treatments had significant effects
"COC1=CC(=O)O[C@@H](CCc2ccccc2)C1 [(+)-DHK, (+)-dihydrokavain]",lung adenoma formation (incidence and multiplicity),[1]; 0.05 mg/g of diet Day 1-Day 14,no reduction at all
same,lung adenoma formation (incidence and multiplicity),[1]; 0.5 mg/g of diet Day 1-Day 14,no reduction at all
same,effect on O^6-mG and POB adducts,[3]; 1 mg/g of diet,did not reduce any of these adducts
same,effect on NNK-induced DNA damage in the liver tissues,[2],none of the treatments had significant effects
COC1=CC(=O)O[C@@H](/C=C/c2ccc3c(c2)OCO3)C1 [(+)-methysticin],effect on NNK-induced O^6-mG,[3]; isolated kavalactones 1 mg/g of diet Day 1-Day 7,significantly reduced
"CC(=O)Nc1ccc(O)cc1 [APAP, acetaminophen, reference compound]",serum ALT and AST activities,[4]; APAP alone 800 mg/kg bodyweight via gavage,significantly increased
same,liver lesions,"[4]; APAP alone 800 mg/kg, lesions graded 0 to 4",evenly distributed among different severity categories
